From ChEMBL document CHEMBL1201862, “PubChem BioAssay data set” (2004)
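Briefly, cells in 96-well plates were exposed to five compound concentrations for 48 h, and endpoints were estimated by linear interpolation. Here, GI50 denotes the concentration required for 50% inhibition of growth.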 Activity calls are given as the source filed them. No stated cut-off is given here; in the data, active = GI50 up to about 1.1 µM and inactive = higher.

Tests used:
Assay in all cases: NCI anticancer screen, dose series, 48 h
HL-60 = system: HL-60
OVCAR-3 = system: OVCAR-3
RXF 393 = system: RXF 393
COLO 205 = system: COLO 205
A549 = system: A549
NCI-H460 = system: NCI-H460
OVCAR-8 = system: OVCAR-8
UO-31 = system: UO-31
SNB-75 = system: SNB-75
SNB-19 = system: SNB-19
NCI-H23 = system: NCI-H23
SK-MEL-5 = system: SK-MEL-5
MOLT-4 = system: MOLT-4
SN12C = system: SN12C
SF-268 = system: SF-268
SF-295 = system: SF-295
OVCAR-5 = system: OVCAR-5
SK-MEL-2 = system: SK-MEL-2
HCC 2998 = system: HCC 2998
NCI-H226 = system: NCI-H226

Row | SMILES | GI50 (HL-60) | GI50 (OVCAR-3) | GI50 (RXF 393) | GI50 (COLO 205) | GI50 (A549) | GI50 (NCI-H460) | GI50 (OVCAR-8) | GI50 (UO-31) | GI50 (SNB-75) | GI50 (SNB-19) | GI50 (NCI-H23) | GI50 (SK-MEL-5) | GI50 (MOLT-4) | GI50 (SN12C) | GI50 (SF-268) | GI50 (SF-295) | GI50 (OVCAR-5) | GI50 (SK-MEL-2) | GI50 (HCC 2998) | GI50 (NCI-H226)
1 | O=C1c2ccccc2C(=O)c2c(OCCOCCO)cccc21 | > 100 µM (inactive) | 28.4 µM (inactive) | 48.6 µM (inactive) | > 100 µM (inactive) | > 100 µM (inactive) | 54.7 µM (inactive) | 70.1 µM (inactive) | 38.9 µM (inactive) | > 100 µM (inactive) | > 100 µM (inactive) | > 100 µM (inactive) | 44.2 µM (inactive) | 58.3 µM (inactive) | 0.714 µM (active) | 44.9 µM (inactive) | 96.6 µM (inactive) | > 100 µM (inactive) | > 100 µM (inactive) | – | –
2 | Cc1c(/C=N/NC(=O)c2ccccc2O)c(=O)n(-c2ccccc2)n1C | 28.1 µM (inactive) | > 100 µM (inactive) | 49.2 µM (inactive) | > 100 µM (inactive) | > 100 µM (inactive) | 47.1 µM (inactive) | > 100 µM (inactive) | 54.7 µM (inactive) | > 100 µM (inactive) | > 100 µM (inactive) | > 100 µM (inactive) | – | 72.6 µM (inactive) | > 100 µM (inactive) | > 100 µM (inactive) | > 100 µM (inactive) | – | > 100 µM (inactive) | > 100 µM (inactive) | > 100 µM (inactive)
3 | CCOP(=O)(OCC)C(Cc1ccc(OC)c(OC)c1)N=C(c1ccccc1)c1ccccc1 (stereo unspecified) | 31.3 µM (inactive) | 34.4 µM (inactive) | 61.4 µM (inactive) | 18.9 µM (inactive) | 26.5 µM (inactive) | 34 µM (inactive) | 42.9 µM (inactive) | 40.4 µM (inactive) | 27.5 µM (inactive) | 63 µM (inactive) | 41.6 µM (inactive) | 23.4 µM (inactive) | – | 42 µM (inactive) | > 100 µM (inactive) | 26.2 µM (inactive) | 70.5 µM (inactive) | – | 24.6 µM (inactive) | 88.1 µM (inactive)
4 | COc1ccc(OC)c2c1C(=O)C(Cl)=C(N1CCN(CCOCCO)CC1)C2=O | 1.08 µM (active) | 17.3 µM (inactive) | 19 µM (inactive) | > 10 µM (inactive) | 20.5 µM (inactive) | 18.8 µM (inactive) | 16.6 µM (inactive) | 16.4 µM (inactive) | 15.9 µM (inactive) | 16 µM (inactive) | 7.6 µM (inactive) | 16.5 µM (inactive) | 4.32 µM (inactive) | 12.4 µM (inactive) | 13.6 µM (inactive) | 18.7 µM (inactive) | 21 µM (inactive) | – | 12.4 µM (inactive) | 16.7 µM (inactive)
5 | COC(=O)C1=COC2OC3CC1C2C(C)O3 (stereo unspecified) | > 100 µM (inactive) | > 100 µM (inactive) | > 100 µM (inactive) | > 100 µM (inactive) | > 100 µM (inactive) | > 100 µM (inactive) | > 100 µM (inactive) | > 100 µM (inactive) | – | > 100 µM (inactive) | > 100 µM (inactive) | > 100 µM (inactive) | > 100 µM (inactive) | > 100 µM (inactive) | > 100 µM (inactive) | > 100 µM (inactive) | > 100 µM (inactive) | > 100 µM (inactive) | > 100 µM (inactive) | > 100 µM (inactive)
6 | C[C@H]1C(=O)O[C@@H]2CCN3CC=C(COC(=O)[C@](C)(O)[C@@]1(C)O)[C@H]23 | > 100 µM (inactive) | > 100 µM (inactive) | – | > 100 µM (inactive) | > 100 µM (inactive) | > 10 µM (inactive) | > 100 µM (inactive) | > 100 µM (inactive) | > 100 µM (inactive) | > 100 µM (inactive) | > 100 µM (inactive) | > 100 µM (inactive) | > 100 µM (inactive) | > 100 µM (inactive) | > 100 µM (inactive) | > 100 µM (inactive) | > 100 µM (inactive) | > 100 µM (inactive) | > 100 µM (inactive) | > 100 µM (inactive)
7 | Cn1c2ncccc2n2c(=O)cc(O)cc12 | – | 40.8 µM (inactive) | 21.1 µM (inactive) | 53 µM (inactive) | > 100 µM (inactive) | 60.5 µM (inactive) | > 100 µM (inactive) | 47.2 µM (inactive) | 24.4 µM (inactive) | > 100 µM (inactive) | > 100 µM (inactive) | > 100 µM (inactive) | 20.7 µM (inactive) | – | 54.2 µM (inactive) | 97.9 µM (inactive) | 88.3 µM (inactive) | 39.6 µM (inactive) | 39.4 µM (inactive) | 30.1 µM (inactive)
8 | CCOC(=O)CCC(NC(=O)c1ccc(Nc2nc3cc(C(F)(F)F)ccc3nc2C(=O)OCC)cc1)C(=O)OCC (stereo unspecified) | > 100 µM (inactive) | 13.8 µM (inactive) | – | 4.14 µM (inactive) | 8.63 µM (inactive) | 18 µM (inactive) | 5.45 µM (inactive) | 11.6 µM (inactive) | – | 10.7 µM (inactive) | 16 µM (inactive) | 23.9 µM (inactive) | > 100 µM (inactive) | 10.7 µM (inactive) | 14.1 µM (inactive) | 5.74 µM (inactive) | 16.6 µM (inactive) | 14.1 µM (inactive) | 30.8 µM (inactive) | –
9 | CCCCCNC(=O)c1c(O)[nH]c(=S)[nH]c1=O | > 100 µM (inactive) | > 100 µM (inactive) | – | > 100 µM (inactive) | 66.5 µM (inactive) | > 100 µM (inactive) | 94.4 µM (inactive) | – | > 100 µM (inactive) | > 100 µM (inactive) | > 100 µM (inactive) | > 100 µM (inactive) | > 100 µM (inactive) | > 100 µM (inactive) | > 100 µM (inactive) | 78.2 µM (inactive) | > 100 µM (inactive) | > 100 µM (inactive) | – | > 100 µM (inactive)
10 | Nc1nccc2c1ncn2[C@H]1C[C@H](O)[C@@H](CO)O1 | – | > 100 µM (inactive) | > 100 µM (inactive) | > 100 µM (inactive) | – | > 100 µM (inactive) | > 100 µM (inactive) | > 100 µM (inactive) | > 100 µM (inactive) | > 100 µM (inactive) | > 100 µM (inactive) | > 100 µM (inactive) | > 100 µM (inactive) | > 100 µM (inactive) | – | > 100 µM (inactive) | > 100 µM (inactive) | > 100 µM (inactive) | > 100 µM (inactive) | > 100 µM (inactive)
11 | O=c1[nH]c2ccccc2n1CCCN1CCC(n2c(=O)[nH]c3cc(Cl)ccc32)CC1 [DOMPERIDONE] | 17.3 µM (inactive) | 17.9 µM (inactive) | 16 µM (inactive) | 12.7 µM (inactive) | 21.8 µM (inactive) | 17.4 µM (inactive) | 18.3 µM (inactive) | 4.7 µM (inactive) | – | – | 17.3 µM (inactive) | 14.6 µM (inactive) | 13.9 µM (inactive) | 16.3 µM (inactive) | – | – | 20.2 µM (inactive) | 19.2 µM (inactive) | 16.7 µM (inactive) | 24 µM (inactive)
